In data set [1] the test system is hepatocytes of formalin-fixed liver tissues. The note with it: rat, in vivo; for RDLMN test result (liver micronucleus induction), formalin-fixed method: po.
For data set [2], the system named is liver. The note with it: in vivo; cited from earlier work.
The subject of data set [3] is hepatocytes (liver). The note with it: rat, in vivo, cited from earlier work; for RDLMN test result (liver micronucleus induction), collagenase digestion method: po.
Data set [4] relates to hepatocytes (liver). The experiment in a line: Repeated-dose liver micronucleus (RDLMN) assay, collagenase digestion method. The following applies: comparison between the two methods. The format is in vivo, rat.
The next data set deals with bone marrow. Also noted: method as in PMID 9707102. The following applies: cited from earlier work.
On the set-up of data set [5]: method as in PMID 15979392. The note with it: cited from earlier work.
Data set [6] concerns liver. Details: method as in PMID 25892619, PMID 25892626. The following applies: previous study; cited from earlier work.

This is an account of results in article PMC6507131, “Evaluation of the novel liver micronucleus assay using formalin-fixed tissues” (Genes and Environment, 2019).

Each structure is given as a SMILES string. Entries after “also recorded” stand apart in the source; their conditions may differ. Counter-ions that a name gives are not always drawn.

With `CC(=O)Nc1ccc2c(c1)Cc1ccccc1-2` [2-AAF, 2-Acetylaminofluorene], in data set [1], the “RDLMN test result (liver micronucleus induction), formalin-fixed method” value (“RDLMN test result … formalin-fixed method” below) is reported as “positive”. Besides, the “Hepatocarcinogen / non-hepatocarcinogen classification” value in the data set with liver [2] is listed as “Hepatocarcinogen”. The “RDLMN test result (liver micronucleus induction), collagenase digestion method” value (from here on “RDLMN test result … collagenase digestion method”) in the data set on hepatocytes (liver) [3] is “positive”.
On to `CC(C)[N+](=O)[O-]` [2-NP, 2-Nitropropane], for which the “RDLMN test result … formalin-fixed method” value in data set [1] is reported as “positive”. Further, the “RDLMN test result … collagenase digestion method” value in the data set on hepatocytes (liver) [3] is recorded as “positive”.
Regarding `CCOC(=O)C(C)(C)Oc1ccc(Cl)cc1` [CFB, Clofibrate], the “Hepatocarcinogen / non-hepatocarcinogen classification” value in the data set with liver [2] is reported as “Hepatocarcinogen”.
`O.O=P1(N(CCCl)CCCl)NCCCO1` (stereo not shown) [CP, Cyclophosphamide H2O]: in data set [1], the “RDLMN test result … formalin-fixed method” value is on record as “negative”. For the same molecule, the “Hepatocarcinogen / non-hepatocarcinogen classification” value with liver [2] is reported as “Non-hepatocarcinogen”. In addition, in the data set with hepatocytes (liver) [3], the “RDLMN test result … collagenase digestion method” value was “negative”.
As for `CN(C)c1ccc(N=Nc2ccccc2)cc1` [DAB, p-Dimethylaminoazobenzene], the “RDLMN test result … formalin-fixed method” value in data set [1] is “positive”. Further, the “Hepatocarcinogen / non-hepatocarcinogen classification” value in the data set on liver [2] is listed as “Hepatocarcinogen”. The “RDLMN test result … collagenase digestion method” value with hepatocytes (liver) [3] is “positive”.
With `CN(C)N=O` [DMN, Dimethylnitrosoamine], in data set [1], the “Frequency of MNHEPs by the formalin-fixed method compared with the collagenase digestion method” value is given as “Relatively higher frequencies of MNHEPs” and the “RDLMN test result … formalin-fixed method” value is reported as “positive”. The “Hepatocarcinogen / non-hepatocarcinogen classification” value in the data set with liver [2] is on record as “Hepatocarcinogen”. Moreover, the “RDLMN test result … collagenase digestion method” value with hepatocytes (liver) [3] is recorded as “positive”.
Take `C[C@H]1C(=O)O[C@@H]2CCN3CC=C(COC(=O)[C@](C)(O)[C@]1(C)O)[C@H]23` [MCT, Monocrotaline]: in data set [1], the “RDLMN test result … formalin-fixed method” value is reported as “positive”. Also, in the data set with liver [2], the “Hepatocarcinogen / non-hepatocarcinogen classification” value is recorded as “Hepatocarcinogen”. The “RDLMN test result … collagenase digestion method” value in the data set with hepatocytes (liver) [3] was “positive”.
`COS(C)(=O)=O` [MMS, Methyl methanesulfonate]: in data set [1], the “RDLMN test result … formalin-fixed method” value is reported as “positive”. Besides, in the data set with liver [2], the “Hepatocarcinogen / non-hepatocarcinogen classification” value is “Non-hepatocarcinogen”. Besides, the “RDLMN test result … collagenase digestion method” value in the data set on hepatocytes (liver) [3] is given as “positive”.
As to `CN(C)CCN(Cc1cccs1)c1ccccn1` [MP, Methapyrilene HCl], the “Hepatocarcinogen / non-hepatocarcinogen classification” value in the data set with liver [2] was “Hepatocarcinogen”.
Turning to `CCCN(CCC)N=O` [NDPA, N-Nitrosodipropylamine], in data set [1], the “Frequency of MNHEPs by the formalin-fixed method compared with the collagenase digestion method” value is listed as “Relatively higher frequencies of MNHEPs” and the “RDLMN test result … formalin-fixed method” value was “positive”. Moreover, the “Hepatocarcinogen / non-hepatocarcinogen classification” value in the data set on liver [2] is on record as “Hepatocarcinogen”. Also, the “RDLMN test result … collagenase digestion method” value with hepatocytes (liver) [3] is listed as “positive”.
On to `O=NN1CCOCC1` [NMOR, N-Nitrosomorpholine], for which the “RDLMN test result … formalin-fixed method” value in data set [1] is reported as “positive”. In addition, the “Hepatocarcinogen / non-hepatocarcinogen classification” value in the data set with liver [2] is on record as “Hepatocarcinogen”. The “RDLMN test result … collagenase digestion method” value in the data set with hepatocytes (liver) [3] is recorded as “positive”.
In the case of `O=NN1CCCC1` [NPYR, N-Nitrosopyrrolidine], the “Micronucleus induction by the collagenase digestion method compared with the formalin-fixed method” value in the data set with hepatocytes (liver) [4] is on record as “the same trend; also recorded: higher micronucleus induction”. Besides, in the data set on liver [2], the “Hepatocarcinogen / non-hepatocarcinogen classification” value is reported as “Hepatocarcinogen”.
On to `c1ccc2ncccc2c1` [QUN, Quinoline], for which, in data set [1], the “RDLMN test result … formalin-fixed method” value is listed as “positive”. In addition, the “RDLMN test result … collagenase digestion method” value in the data set with hepatocytes (liver) [3] is “positive”.
As to `Oc1ccc2ccccc2c1N=Nc1ccccc1` [Sudan I, Sudan I (C.I.solvent yellow 14)], in the data set with bone marrow, the “short-term bone marrow micronucleus assay result” value is “positive”. Besides, the “RDLMN test result … formalin-fixed method” value in data set [1] was “positive”. Moreover, the “in vitro chromosome aberration test result” value in data set [5] was “negative”. Besides, the “Histopathological finding in the liver” value with liver [6] is given as “remarkable HEP hypertrophy”. In the data set with liver [2], the “Hepatocarcinogen / non-hepatocarcinogen classification” value was “Hepatocarcinogen” and the liver carcinogenicity result is “positive”. Besides, in the data set with hepatocytes (liver) [3], the “RDLMN test result … collagenase digestion method” value is given as “negative” and the “Dose dependence of liver micronucleus induction, collagenase digestion method” value is listed as “a tendency, though slight, toward a dose-dependent increase”.
Consider `CC(=N)S` [TAA, Thioacetamide], for which, in data set [1], the “Frequency of MNHEPs by the formalin-fixed method compared with the collagenase digestion method” value is listed as “comparable” and the “RDLMN test result … formalin-fixed method” value is “positive”. Moreover, in the data set with liver [2], the “Hepatocarcinogen / non-hepatocarcinogen classification” value is recorded as “Hepatocarcinogen”. In addition, in the data set with hepatocytes (liver) [3], the “RDLMN test result … collagenase digestion method” value was “negative”.
